# Data reported in ChEMBL document CHEMBL4017443, “(-)-UB006: A new fatty acid synthase inhibitor and cytotoxic agent without anorexic side effects” (Eur J Med Chem, 2017).
# Activity calls are given as the source filed them. No cut-off for these calls is given here.
# How the values were obtained:
# Fibroblast = assay: Antiproliferative activity against fibroblasts (unknown origin) after 72 hrs by MTT assay; type: cell-based
# MIA PaCa-2 = assay: Antiproliferative activity against human MIAPaCa2 cells after 72 hrs by MTT assay; type: functional, cell-based; details: MIA PaCa-2, 72 h
# HCT-116 = assay: Antiproliferative activity against human HCT116 cells after 72 hrs by MTT assay; type: functional, cell-based; details: HCT-116, 72 h
# OVCAR-3 = assay: Antiproliferative activity against human OVCAR3 cells after 72 hrs by MTT assay; type: functional, cell-based; details: OVCAR-3, 72 h
# SK-BR-3 = assay: Antiproliferative activity against human SKBR3 cells after 72 hrs by MTT assay; type: functional, cell-based; details: SK-BR-3, 72 h
# MCF7 = assay: cells; details: Homo sapiens, MCF7, 72 h
# PC-3 = assay: Antiproliferative activity against human PC3 cells after 72 hrs by MTT assay; type: functional, cell-based; details: PC-3, 72 h
# Fatty acid synthase = Fatty acid synthase (Rattus norvegicus, UniProt P12785); assay: Inhibition of fatty acid synthase in rat cytosolic hepatic extracts using acetyl CoA and malonyl CoA as substrate preincubated for 30 mins followed by acetyl CoA addition and subsequent incubation for 3 mins prior to malonyl CoA addition measured after 10 mins in presence of NADPH by spectrophotometric method
# MDA-MB-231 = assay: Antiproliferative activity against human MDA-MB-231 cells after 72 hrs by MTT assay; type: functional, cell-based; details: MDA-MB-231, 72 h
# [1] = target: Ribosomal protein S6 kinase beta-1 (Homo sapiens) (UniProt P23443); assay: Inhibition of S6K1 phosphorylation at T389 in human OVCAR3 cells at 29.74 uM after 24 hrs by Western blot analysis; type: cell-based
# [2] = target: T1, Carnitine O-palmitoyltransferase 1, liver isoform (Rattus norvegicus, UniProt P32198); assay: Inhibition of rat wild-type CPT1A expressed in yeast mitochondrial extracts using L-[methyl-3H]carnitine and palmitoyl-CoA as substrates preincubated for 1 min followed by substrate addition measured for 5 mins by radiometric method
# T1 sequence (P32198 whole entry): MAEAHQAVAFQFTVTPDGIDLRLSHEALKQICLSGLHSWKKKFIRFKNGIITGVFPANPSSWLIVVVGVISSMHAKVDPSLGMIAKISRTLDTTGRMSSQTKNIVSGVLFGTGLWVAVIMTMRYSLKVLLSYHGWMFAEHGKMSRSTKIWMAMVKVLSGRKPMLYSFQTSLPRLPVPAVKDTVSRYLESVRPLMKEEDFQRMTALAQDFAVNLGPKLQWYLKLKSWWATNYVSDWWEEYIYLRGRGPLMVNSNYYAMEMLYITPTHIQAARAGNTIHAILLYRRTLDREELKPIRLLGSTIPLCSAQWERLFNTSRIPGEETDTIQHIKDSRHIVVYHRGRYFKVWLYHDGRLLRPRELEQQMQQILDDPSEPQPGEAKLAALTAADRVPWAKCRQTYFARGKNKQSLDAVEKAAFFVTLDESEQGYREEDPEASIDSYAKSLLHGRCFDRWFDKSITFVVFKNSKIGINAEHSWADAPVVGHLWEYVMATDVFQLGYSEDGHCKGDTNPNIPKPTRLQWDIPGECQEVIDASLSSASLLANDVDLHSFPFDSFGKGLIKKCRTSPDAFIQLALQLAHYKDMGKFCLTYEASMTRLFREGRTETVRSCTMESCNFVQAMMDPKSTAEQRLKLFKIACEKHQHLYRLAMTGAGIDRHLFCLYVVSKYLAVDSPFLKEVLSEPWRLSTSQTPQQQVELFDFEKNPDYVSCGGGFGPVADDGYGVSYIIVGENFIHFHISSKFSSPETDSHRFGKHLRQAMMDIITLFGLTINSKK
# Mus musculus [3] = assay: Toxicity in ip dosed C57/BL6J mouse assessed as decrease in body weight; type: organism-based; details: in vivo
# Rattus norvegicus [4] = assay: Toxicity in icv dosed Sprague-Dawley rats assessed as decrease in body weight; type: organism-based; details: in vivo, icv_or_intrathecal
# Mus musculus [5] = assay: Toxicity in C57/BL6J mouse assessed as decrease in food intake at 15 mg/kg, ip administered once daily for 3 days measured after 2 days; type: organism-based; details: in vivo, 48 h
# Rattus norvegicus [6] = assay: Toxicity in Sprague-Dawley rats assessed as decrease in food intake at 30 mM, icv measured after 1 to 22 hrs; details: in vivo, icv_or_intrathecal, 30000 µM
# Mus musculus [7] = assay: Toxicity in C57/BL6J mouse assessed as decrease in body weight at 15 mg/kg, ip administered once daily for 3 days measured after 2 days; type: organism-based; details: in vivo, 48 h
# Rattus norvegicus [8] = assay: Toxicity in Sprague-Dawley rats assessed as decrease in body weight at 33 mM, icv measured every day for 3 days; details: in vivo, icv_or_intrathecal, 72 h, 33000 µM
# [9] = target: Fatty acid synthase (Homo sapiens) (UniProt P49327); details: 8 ug/ml
# Sequence of Fatty acid synthase (Homo sapiens) (P49327 whole entry, looked up): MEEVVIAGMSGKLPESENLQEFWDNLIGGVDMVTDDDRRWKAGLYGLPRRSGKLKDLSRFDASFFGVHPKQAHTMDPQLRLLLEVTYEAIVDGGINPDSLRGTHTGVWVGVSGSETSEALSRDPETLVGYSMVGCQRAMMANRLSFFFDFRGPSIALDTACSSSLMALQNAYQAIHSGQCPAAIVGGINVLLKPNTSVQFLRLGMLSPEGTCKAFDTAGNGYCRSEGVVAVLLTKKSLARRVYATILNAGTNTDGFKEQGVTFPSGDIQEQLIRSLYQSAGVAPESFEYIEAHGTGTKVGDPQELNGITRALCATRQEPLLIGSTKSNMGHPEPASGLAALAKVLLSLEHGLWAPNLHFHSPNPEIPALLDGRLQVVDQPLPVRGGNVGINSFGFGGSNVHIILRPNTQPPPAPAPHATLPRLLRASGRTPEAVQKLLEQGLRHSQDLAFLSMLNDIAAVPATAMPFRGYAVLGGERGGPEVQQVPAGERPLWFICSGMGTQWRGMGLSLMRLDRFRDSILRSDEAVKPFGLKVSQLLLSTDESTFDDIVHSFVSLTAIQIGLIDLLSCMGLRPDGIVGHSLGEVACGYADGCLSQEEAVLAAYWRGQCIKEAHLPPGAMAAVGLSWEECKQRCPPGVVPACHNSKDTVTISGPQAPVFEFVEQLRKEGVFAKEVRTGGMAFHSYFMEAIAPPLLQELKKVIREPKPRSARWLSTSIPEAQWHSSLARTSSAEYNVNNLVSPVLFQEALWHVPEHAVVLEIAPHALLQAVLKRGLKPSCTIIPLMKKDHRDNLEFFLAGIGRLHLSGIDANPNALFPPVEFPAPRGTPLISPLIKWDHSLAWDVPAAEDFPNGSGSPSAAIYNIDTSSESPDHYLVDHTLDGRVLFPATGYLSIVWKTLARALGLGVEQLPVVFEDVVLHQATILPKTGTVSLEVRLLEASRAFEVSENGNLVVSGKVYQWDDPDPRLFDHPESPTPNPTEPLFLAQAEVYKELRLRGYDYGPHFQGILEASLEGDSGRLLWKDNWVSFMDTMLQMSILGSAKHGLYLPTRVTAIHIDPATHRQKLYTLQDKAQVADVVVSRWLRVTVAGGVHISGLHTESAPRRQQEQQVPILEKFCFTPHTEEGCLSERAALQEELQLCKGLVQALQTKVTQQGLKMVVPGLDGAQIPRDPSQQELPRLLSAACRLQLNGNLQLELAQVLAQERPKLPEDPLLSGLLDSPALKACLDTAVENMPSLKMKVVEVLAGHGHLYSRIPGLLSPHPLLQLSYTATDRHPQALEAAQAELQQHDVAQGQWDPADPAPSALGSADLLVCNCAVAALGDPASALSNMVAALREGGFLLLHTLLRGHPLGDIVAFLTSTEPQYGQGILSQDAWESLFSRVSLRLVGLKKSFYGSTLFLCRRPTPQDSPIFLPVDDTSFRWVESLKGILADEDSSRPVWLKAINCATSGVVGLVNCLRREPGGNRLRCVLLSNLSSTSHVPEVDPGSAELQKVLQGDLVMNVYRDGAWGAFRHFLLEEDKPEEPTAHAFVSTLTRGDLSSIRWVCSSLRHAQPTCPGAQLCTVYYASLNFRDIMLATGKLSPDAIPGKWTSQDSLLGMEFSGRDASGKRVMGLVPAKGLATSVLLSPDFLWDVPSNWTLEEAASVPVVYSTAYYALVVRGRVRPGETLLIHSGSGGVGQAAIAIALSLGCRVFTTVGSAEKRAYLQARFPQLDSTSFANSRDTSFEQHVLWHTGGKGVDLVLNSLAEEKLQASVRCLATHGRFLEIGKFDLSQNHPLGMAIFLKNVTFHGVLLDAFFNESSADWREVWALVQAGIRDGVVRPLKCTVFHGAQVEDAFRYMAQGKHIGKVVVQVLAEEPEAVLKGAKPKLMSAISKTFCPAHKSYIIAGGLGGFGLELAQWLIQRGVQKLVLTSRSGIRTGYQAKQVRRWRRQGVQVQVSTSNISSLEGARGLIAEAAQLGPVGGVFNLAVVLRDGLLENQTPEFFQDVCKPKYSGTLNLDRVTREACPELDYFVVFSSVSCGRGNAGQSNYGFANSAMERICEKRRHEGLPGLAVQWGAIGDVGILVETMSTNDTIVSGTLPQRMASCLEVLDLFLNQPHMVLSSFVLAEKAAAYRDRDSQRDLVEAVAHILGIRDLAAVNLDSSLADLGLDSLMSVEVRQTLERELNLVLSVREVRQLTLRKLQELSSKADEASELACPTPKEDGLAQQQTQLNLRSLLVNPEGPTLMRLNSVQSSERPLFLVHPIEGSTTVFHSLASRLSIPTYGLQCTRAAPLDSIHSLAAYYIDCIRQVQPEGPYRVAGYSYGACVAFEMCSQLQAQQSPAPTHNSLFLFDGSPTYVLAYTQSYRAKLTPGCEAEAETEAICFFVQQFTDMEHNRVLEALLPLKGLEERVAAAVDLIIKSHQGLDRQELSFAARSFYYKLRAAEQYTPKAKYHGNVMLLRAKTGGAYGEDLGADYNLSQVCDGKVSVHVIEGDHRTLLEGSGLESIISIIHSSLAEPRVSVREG
# Description: Inhibition of fatty acid synthase in human OVCAR3 cells assessed as reduction in fatty acid synthesis at 8 ug/ml pretreated for 2 hrs followed by [U14C]-acetate addition measured after 2 hrs by scintillation counting method relative to control
# Sequence of Ribosomal protein S6 kinase beta-1 (Homo sapiens) (P23443 whole entry, looked up, canonical isoform): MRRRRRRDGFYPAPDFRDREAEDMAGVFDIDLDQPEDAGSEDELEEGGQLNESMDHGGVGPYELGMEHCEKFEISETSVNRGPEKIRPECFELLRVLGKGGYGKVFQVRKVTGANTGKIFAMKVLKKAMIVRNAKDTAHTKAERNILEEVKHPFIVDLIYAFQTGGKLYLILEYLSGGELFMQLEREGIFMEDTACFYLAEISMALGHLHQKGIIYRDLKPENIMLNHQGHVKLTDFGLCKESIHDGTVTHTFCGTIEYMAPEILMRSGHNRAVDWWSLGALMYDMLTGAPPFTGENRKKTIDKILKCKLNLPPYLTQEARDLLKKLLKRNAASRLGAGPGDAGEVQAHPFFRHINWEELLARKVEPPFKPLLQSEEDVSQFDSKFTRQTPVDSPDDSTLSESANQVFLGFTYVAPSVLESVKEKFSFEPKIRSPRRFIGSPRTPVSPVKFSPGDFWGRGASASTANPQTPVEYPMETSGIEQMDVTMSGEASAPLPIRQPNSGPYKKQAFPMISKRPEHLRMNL
SMILES,IC50 (MIA PaCa-2),IC50 (HCT-116),IC50 (OVCAR-3),IC50 (SK-BR-3),IC50 (MCF7),IC50 (PC-3),IC50 (MDA-MB-231),IC50 [2],IC50 (Fibroblast),also measured
C=C1C(=O)O[C@@H](CCCCCCCC)[C@@H]1CO,–,–,–,–,–,–,–,–,–,inhibition [1]: Active
CCCCCCCCC1OC(=O)C(CSCCNC(=O)CCNC(=O)[C@H](O)C(C)(C)COP(=O)(O)OP(=O)(O)OC[C@H]2O[C@@H](n3cnc4c(N)ncnc43)[C@H](O)[C@@H]2OP(=O)(O)O)C1C(=O)O (mixture of isomers),–,–,–,–,–,–,–,1.1 µM,–,–
CCCCCCCCC1OC(=O)C(CSCCNC(=O)CCNC(=O)[C@H](O)C(C)(C)COP(=O)(O)OP(=O)(O)OC[C@H]2O[C@@H](n3cnc4c(N)ncnc43)[C@H](O)[C@@H]2OP(=O)(O)O)C1CO (mixture of isomers),–,–,–,–,–,–,–,15.7 µM,–,Activity (Mus musculus [3]): Non-Toxic; Activity (Rattus norvegicus [4]): Non-Toxic

# The next lines start with results.
IC50 (MIA PaCa-2),IC50 (HCT-116),IC50 (OVCAR-3),IC50 (SK-BR-3),IC50 (MCF7),IC50 (PC-3),IC50 (MDA-MB-231),IC50 [2],SMILES,IC50 (Fibroblast),also measured
25.3 µM,74.8 µM,17.9 µM,38.2 µM,46.4 µM,34.3 µM,57.7 µM,–,C=C1C(=O)O[C@@H](CCCCCCCC)[C@@H]1C(=O)O,> 117 µM,IC50 (Fatty acid synthase): 440 to 498 µM
21.8 µM,46.4 µM,21.9 µM,19.8 µM,27.3 µM,26.8 µM,43.8 µM,–,C=C1C(=O)OC(CCCCCCCC)C1C(=O)O (racemic),63.2 µM,Activity (Mus musculus [5]): Toxic; Activity (Rattus norvegicus [6]): Toxic; Activity (Mus musculus [7]): Toxic; Activity (Rattus norvegicus [8]): Toxic; inhibition [9]: 38%
